# Measurements reported in patent publication US6737383B1, “Herbicidal oxadiazolidines” (priority 1999, dated 2004).
# Assays:
# [1] = tested on: bedstraw; experiment: Test B pre/postemergence bedstraw; type: in vivo, Galium aparine
# In short: (§1)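 Response is a visual 0-to-10 score relative to untreated plants, where 0 means no effect and 10 means complete control, taken twelve to sixteen days after application. Treatments went onto soil at planting and onto foliage of 1- to 4-leaf plants, using a surfactant-containing non-phytotoxic solvent.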
# [2] = tested on: surinam grass; experiment: Test B pre/postemergence surinam grass; type: in vivo, Brachiaria decumbens
# In short: as §1
# [3] = tested on: cocklebur; experiment: Test B pre/postemergence cocklebur; type: in vivo, Xanthium strumarium
# In short: as §1
# [4] = tested on: corn; experiment: Test B pre/postemergence corn; type: in vivo, Zea mays
# In short: as §1
# [5] = tested on: crabgrass; experiment: Test B pre/postemergence crabgrass; type: in vivo, Digitaria sanguinalis
# In short: as §1
# [6] = tested on: morningglory; experiment: Test B pre/postemergence morningglory; type: in vivo, Ipomoea hederacea
# In short: as §1
# [7] = tested on: pigweed; experiment: Test B pre/postemergence pigweed; type: in vivo, Amaranthus retroflexus
# In short: as §1
# [8] = tested on: rape; experiment: Test B pre/postemergence rape; type: in vivo, Brassica napus
# In short: as §1
# [9] = tested on: soybean; experiment: Test B pre/postemergence soybean; type: in vivo, Glycine max
# In short: as §1
# [10] = tested on: sugar beet; experiment: Test B pre/postemergence sugar beet; type: in vivo, Beta vulgaris
# In short: as §1
# [11] = tested on: velvetleaf; experiment: Test B pre/postemergence velvetleaf; type: in vivo, Abutilon theophrasti
# In short: as §1
# [12] = tested on: wild oat; experiment: Test B pre/postemergence wild oat; type: in vivo, Avena fatua
# In short: as §1
# [13] = tested on: rice; experiment: Test B flood test rice; type: in vivo, Oryza sativa
# In short: (§2)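 Plants were grown to the 2-leaf stage before treatment with test chemical, then held in a greenhouse for twelve to sixteen days. Injury was visually rated against untreated controls on a 0–10 scale, where 0 is no effect and 10 is complete control.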
# [14] = tested on: smallflower flatsedge; experiment: Test B flood test smallflower flatsedge; type: in vivo, Cyperus difformis
# In short: as §2
# [15] = tested on: duck salad; experiment: Test B flood test duck salad; type: in vivo, Heteranthera limosa
# In short: as §2
# [16] = tested on: bamyardgrass; experiment: Test B flood test barnyardgrass; type: in vivo, Echinochloa crus-galli
# In short: as §2
# [17] = Postemergence, Rate 62 g/ha, scale 0 to 10, 0 is no effect, 10 is complete control
# [18] = Postemergence, Rate 250 g/ha, scale of 0 to 10, 0 is no effect, 10 is complete control
# [19] = Postemergence, Rate 500 g/ha, scale of 0 to 10 where 0 is no effect and 10 is complete control
# [20] = Preemergence, Rate 500 g/ha, scale of 0 to 10 where 0 is no effect and 10 is complete control
# [21] = Postemergence, Rate 125 g/ha, scale of 0 to 10 where 0 is no effect and 10 is complete control
# [22] = Preemergence, Rate 62 g/ha, scale 0 to 10 (0 no effect, 10 complete control)
# [23] = Preemergence, Rate 125 g/ha, scale of 0 to 10 where 0 is no effect and 10 is complete control
# [24] = Rate 62 g/ha, flood test species, Pre-emergence, visual evaluation after twelve to sixteen days
# [25] = Rate 125 g/ha, under heading Pre-emergence, flood test species, visual evaluation after twelve to sixteen days
# [26] = Rate 250 g/ha, Pre-emergence (flood test species), scale 0 to 10, 0 is no effect, 10 is complete control
# [27] = Rate 500 g/ha, Pre-emergence section of Table B, 0 to 10 scale (0 no effect, 10 complete control)
smiles,measurement,setting,value
CCC(C)n1c(=O)on(C(=O)N(c2ccccc2)C(C)C)c1=O (stereo not shown) [Compound 612],"Plant response rating, Bedstraw",[1]; [17],3
same,Bedstraw plant response rating,[1]; [18],6
same,"Plant response rating, Bedstraw",[1]; [19],9
same,Bedstraw plant response rating,[1]; [20],10
same,"Plant response rating, B. signalgrass",[2]; [17],1
same,"Plant response rating, B. signalgrass",[2]; [21],3
same,B. signalgrass plant response rating,[2]; [18],7
same,"Plant response rating, B. signalgrass",[2]; [19],9
same,B. signalgrass plant response rating,[2]; [22],4
same,B. signalgrass plant response rating,[2]; [23],7
same,"B. signalgrass plant response rating (0 to 10 scale, 0 is no effect, 10 is complete control)","[2]; Preemergence, Rate 250 g/ha",10
same,B. signalgrass plant response rating,[2]; [20],10
same,"Plant response rating, Cocklebur",[3]; [17],0
same,"Plant response rating, Cocklebur",[3]; [21],0
same,Cocklebur plant response rating,[3]; [18],0
same,"Plant response rating, Cocklebur",[3]; [19],2
same,Cocklebur plant response rating,[3]; [22],0
same,Cocklebur plant response rating,[3]; [23],0
same,Cocklebur plant response rating (0 to 10 scale),"[3]; Preemergence, Rate 250 g/ha",0
same,"Plant response rating, Cocklebur",[3]; [20],0
same,"Plant response rating, Corn",[4]; [17],0
same,"Plant response rating, Corn",[4]; [21],0
same,Corn plant response rating,[4]; [18],0
same,"Plant response rating, Corn",[4]; [19],0
same,Corn plant response rating,[4]; [22],0
same,Corn plant response rating,[4]; [23],3
same,Corn plant response rating (0 to 10 scale),"[4]; Preemergence, Rate 250 g/ha",8
same,"Plant response rating, Corn",[4]; [20],9
same,"Plant response rating, Crabgrass",[5]; [17],4
same,"Plant response rating, Crabgrass",[5]; [21],8
same,Crabgrass plant response rating,[5]; [18],9
same,"Plant response rating, Crabgrass",[5]; [19],10
same,Crabgrass plant response rating,[5]; [22],10
same,Crabgrass plant response rating,[5]; [23],10
same,"Plant response rating, Crabgrass",[5]; [20],10
same,"Plant response rating, Morningglory",[6]; [17],5
same,"Plant response rating, Morningglory",[6]; [21],8
same,Morningglory plant response rating,[6]; [18],8
same,"Plant response rating, Morningglory",[6]; [19],10
same,Morningglory plant response rating,[6]; [22],0
same,Morningglory plant response rating,[6]; [23],0
same,"Plant response rating, Morningglory",[6]; [20],10
same,"Plant response rating, Redroot pigweed",[7]; [17],0
same,"Plant response rating, Redroot pigweed",[7]; [21],2
same,Redroot pigweed plant response rating,[7]; [18],4
same,"Plant response rating, Redroot pigweed",[7]; [19],7
same,Redroot pigweed plant response rating,[7]; [22],8
same,Redroot pigweed plant response rating,[7]; [23],10
same,"Plant response rating, Redroot pigweed",[7]; [20],10
same,"Plant response rating, Rape",[8]; [17],0
same,"Plant response rating, Rape",[8]; [21],0
same,Rape plant response rating,[8]; [18],0
same,"Plant response rating, Rape",[8]; [19],7
same,Rape plant response rating,[8]; [22],0
same,Rape plant response rating,[8]; [23],3
same,"Plant response rating, Rape",[8]; [20],10
same,"Plant response rating, Soybean",[9]; [17],4
same,"Plant response rating, Soybean",[9]; [21],5
same,Soybean plant response rating,[9]; [18],7
same,"Plant response rating, Soybean",[9]; [19],8
same,Soybean plant response rating,[9]; [22],0
same,Soybean plant response rating,[9]; [23],0
same,"Plant response rating, Soybean",[9]; [20],3
same,"Plant response rating, Sugarbeets",[10]; [17],0
same,"Plant response rating, Sugarbeets",[10]; [21],0
same,Sugarbeets plant response rating,[10]; [18],0
same,"Plant response rating, Sugarbeets",[10]; [19],1
same,Sugarbeets plant response rating,[10]; [22],3
same,Sugarbeets plant response rating,[10]; [23],5
same,"Plant response rating, Sugarbeets",[10]; [20],7
same,"Plant response rating, Velvetleaf",[11]; [17],2
same,"Plant response rating, Velvetleaf",[11]; [21],3
same,Velvetleaf plant response rating,[11]; [18],3
same,"Plant response rating, Velvetleaf",[11]; [19],6
same,Velvetleaf plant response rating,[11]; [22],6
same,Velvetleaf plant response rating,[11]; [23],7
same,"Plant response rating, Velvetleaf",[11]; [20],8
same,"Plant response rating, Wild oats",[12]; [17],0
same,"Plant response rating, Wild oats",[12]; [21],6
same,Wild oats plant response rating,[12]; [18],6
same,"Plant response rating, Wild oats",[12]; [19],9
same,Wild oats plant response rating,[12]; [22],5
same,Wild oats plant response rating,[12]; [23],9
same,"Plant response rating, Wild oats",[12]; [20],10
same,"Plant response rating, Rice (0 to 10 scale, 0 is no effect, 10 is complete control)",[13]; [24],0
same,"Rice plant response rating (0 to 10 scale, 0 is no effect, 10 is complete control)",[13]; [25],0
same,Rice plant response rating,[13]; [26],0
same,Rice plant response rating,[13]; [27],0
same,"Plant response rating, S. Flatsedge (0 to 10 scale, 0 is no effect, 10 is complete control)",[14]; [24],0
same,"S. Flatsedge plant response rating (0 to 10 scale, 0 is no effect, 10 is complete control)",[14]; [25],0
same,S. Flatsedge plant response rating,[14]; [26],0
same,S. Flatsedge plant response rating,[14]; [27],0
same,"Plant response rating, Ducksalad (0 to 10 scale, 0 is no effect, 10 is complete control)",[15]; [24],0
same,"Ducksalad plant response rating (0 to 10 scale, 0 is no effect, 10 is complete control)",[15]; [25],0
same,Ducksalad plant response rating,[15]; [26],0
same,Ducksalad plant response rating,[15]; [27],0
same,"Plant response rating, Barnyardgrass (0 to 10 scale, 0 is no effect, 10 is complete control)",[16]; [24],0
same,"Barnyardgrass plant response rating (0 to 10 scale, 0 is no effect, 10 is complete control)",[16]; [25],0
same,Barnyardgrass plant response rating,[16]; [26],0
same,Barnyardgrass plant response rating,[16]; [27],0
